Assay results taken from US10829719B2, “Sodium methyl glycine-N,N-diacetic acid compound, process to prepare it and use thereof” (NOURYON CHEMICALS INTERNATIONAL B.V., priority 2017, dated 2020).

Assays:
[1] = Dissolution rate of granules in deionized water monitored by conductivity; format: physicochemical; settings: for time needed (s) to reach 75% dissolved / time needed (s) to reach 90% dissolved / time needed (s) to reach 95% dissolved / time needed (s) to reach 100% dissolved: 1 gram granules in 75 gram deionized water, stirred, trisodium salt
Method: The dissolution rate of these granules was compared to the dissolution rate of the original granules that were not heat treated:
1 gram of granules was added in one shot to a stirred container filled with 75 gram deionized water, equipped with a conductivity measurement probe. The conductivity of the dispersion was monitored in time. The degree of dissolution was determined by dividing the conductivity by the value finally obtained when the sample was fully dissolved yielding a stable level of conductivity.
(The measurements were done in duplicate yielding the same result)

[2] = Free flowability and weight gain after storage in climate chamber at 40° C. and 75% relative humidity; format: physicochemical; settings: mean of three dishes; for fraction free flowing (%) Original / weight gain (%) Original: non-treated sample, stored 5 days at 40° C. and 75% relative humidity; for fraction free flowing (%) Treated / weight gain (%) Treated: sample dried 4 hours at 160° C., then stored 5 days at 40° C. and 75% relative humidity
Method: The compounds obtained in Examples 1 and 3 were dried 4 hours at 160° C. Subsequently, 5 grams of each sample were distributed evenly over the bottom of a (separate) crystallization dish (diameter 10 cm) and stored for 5 days in a climate chamber at 40° C. and 75% relative humidity. As a reference also the non-treated samples, as well as a sample of Trilon M granules (Na3-MGDA solid ex BASF), were stored in the same climate chamber at the same time.
To improve reliability of the testing, three separate dishes of all samples were stored at the same conditions.
After five days the dishes were weighed and the gain in mass of the contents was determined.
To estimate the amount of material that was still free flowing, the dishes were first tapped gently and then were mounted vertically to estimate the amount of material that remained sticking on the glass surface versus the amount of granular material ending on the bottom.

SMILES	time needed (s) to reach 75% dissolved [1]	time needed (s) to reach 90% dissolved [1]	time needed (s) to reach 95% dissolved [1]	time needed (s) to reach 100% dissolved [1]	dissolution compared to type I containing granules ([1]; type III containing granules versus original, not heat treated type I granules)	fraction free flowing (%) Original [2]	weight gain (%) Original [2]	fraction free flowing (%) Treated [2]	weight gain (%) Treated [2]
CC(C(=O)[O-])N(CC(=O)[O-])CC(=O)[O-].[Na+].[Na+].[Na+] (single isomer, unassigned) [type I, methyl glycine-N,N-diacetic acid trisodium salt, reference compound]	40 s	110 s	160 s	260 s					
CC(C(=O)[O-])N(CC(=O)[O-])CC(=O)[O-].[Na+].[Na+].[Na+] (single isomer, unassigned) [type III, methyl glycine-N,N-diacetic acid trisodium salt]	22 s	36 s	45 s	90 s	dissolve much faster				
CC(C(=O)[O-])N(CC(=O)[O-])CC(=O)[O-].[Na+].[Na+].[Na+] (centres unmarked) [Example 1, Na3-MGDA]						40%	11%	65%	27%
CC(C(=O)[O-])N(CC(=O)[O-])CC(=O)[O-].[Na+].[Na+].[Na+] (centres unmarked) [Example 3, Na3-MGDA]						20%	17%	80%	29%
